Here are results for one substance from patent US20210393742A1, “LONG-ACTING INTERLEUKIN-15 RECEPTOR AGONIST IN COMBINATION WITH ANOTHER PHARMACOLOGICALLY ACTIVE AGENT” (Nektar Therapeutics, priority 2018, published 2021).

For one test, the system named is SKOV-3 cells. As to the kind of experiment: Tumor growth inhibition in SKOV-3 ovarian carcinoma model (Example 21). Format: in vivo, mice. The note with it: 35 days after treatment initiation; trastuzumab 13.5 mg/kg IV x6; Compound 1 0.3 mg/kg IV x3. The method, then: Tumor growth inhibition in inoculated mice was measured 35 days after treatment initiation.
Test [1] deals with human multiple myeloma RPMI-8226 cells. Briefly: NK cell cytotoxicity (ADCC) against daratumumab pre-coated RPMI-8226 cells (Example 9). The class given is cell-based. The settings on record: NK cells primed with 1000 ng/mL overnight; targets pre-coated with daratumumab 100 ng/mL; E:T 10:1, 3 hr. How it is done: Human NK cells were magnetically sorted from normal donor PBMCs using negative selection. NK cells were seeded in a 96-well U-bottom plate at a density of 400,000 cells/well. NK cells were stimulated with 1000 ng/mL of a long-acting IL-15 receptor agonist (mono(mPEG-butanamide)IL-15) (+) or left unstimulated (−) in complete RPMI-1640 media supplemented with 10% fetal bovine serum (FBS) and 1% antibiotic/antimycotic overnight at 37° C. in 5% CO2.
The human multiple myeloma RPMI-8226 cells (ATCC #CCL-155) were washed in PBS and stained with 0.15 μM CFSE for 5 min at 37° C. The tumor cells were pre-coated with 100 ng/mL daratumumab (+) for 1 hr at 37° C. where indicated. The stimulated NK cells (effector cells) and the pre-coated CFSE-labeled tumor cells (target cells) were co-cultured in an E:T ratio of 10:1 for 3 hr at 37° C. in 5% CO2. Following incubation, cells were washed in flow staining buffer, Fc-blocked for 15 min at 4° C., and surface-stained (CD45, CD56, CD3-fluorescently conjugated antibodies). The cells were washed in PBS and incubated in 7-aminoactinomycin (7-AAD) viability stain for 30 minutes at 4° C. before acquiring for flow cytometric analysis using a Fortessa (BD). The percentage of 7-AAD+CFSE+ target cells from total cell population is the percentage for dead tumor cells.

The subject of the next test is NK cells. Briefly: CD16 surface expression on bone marrow NK cells of Daudi lymphoma bearing mice (Example 10). Format: in vivo. The note with it: bone marrow day 24. How it is done:
Balb/c mice bearing Daudi B cell lymphoma tumors in the bone marrow (n=6/group) were intraperitoneally administered a single 0.5 mg/kg dose of the human CD38 protein targeting clinical antibody daratumumab (DARZALEX®, Janssen Biotech) or a nonspecific control antibody with a matching isotype on day 14 after Daudi cell intravenous inoculation. Additional groups were treated with (i) mono(mPEG-N-butanamide)40 kD interleukin-15 (Conjugate 1) administered subcutaneously at a dose of 0.3 mg/kg as a single agent on days 14 and 21 after Daudi cell inoculation, or (ii) a combination treatment of Conjugate 1 administered subcutaneously at doses of 0.03 mg/kg or 0.3 mg/kg on days 14 and 21 after Daudi cell inoculation and daratumumab administered intraperitoneally at a dose of 0.5 mg/kg on day 14 after Daudi cell inoculation.
Three days following the second Conjugate 1 administration (day 24 after Daudi inoculation), bone marrow was collected and the NK cell fraction was measured by flow cytometry in total bone marrow. The fraction of NK cells expressing the cell surface CD16 receptor that is known to mediate antibody dependent cellular cytotoxicity mechanism in the presence of tumor targeting antibodies, and the change in CD16 expression per cell basis on NK cells are shown in FIGS. 13A and 13B, respectively.

Setting [2] is: Conjugate 1 0.3 mg/kg, antibody 0.5 mg/kg.

“mono(methoxyPEG-N-butanamide)40 kD interleukin-15 [Conjugate 1]”: in the test on SKOV-3 cells, the tumor growth inhibition entry is “no tumor growth inhibition”. Moreover, the “ADCC, % 7-AAD+ target cells” value in test [1] is “enhanced ADCC of daratumumab pre-coated multiple myeloma cells”. Moreover, the “Fraction of NK cell expressing cell surface CD16 (mean value)” value in the test on NK cells (Conjugate 1 0.3 mg/kg SC days 14 and 21, antibody 0.5 mg/kg IP day 14) is reported as 96%. In the test on NK cells (setting [2]), the “CD16 mean fluorescence intensity (MFI mean value)” value amounted to 853 and the “Relative CD16 expression compared to untreated condition” value is listed as 1.8x increase.
